Experiments:
[1] = tested on: TRZAWR (Wheat, Winter, cv Riband); experiment: Preemergence herbicidal evaluation; format: in vivo, Triticum aestivum; conditions: rated 4-5 weeks after treatment
Method in brief: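 Visual 0-9 rating versus untreated control, taken four to five weeks post-treatment, scoring stand, vigor, malformation, size, chlorosis and overall appearance. Compound applied as aqueous acetone spray to freshly seeded soil cups, then kept under standard greenhouse care.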

[2] = tested on: ECHORC (Echinochloa oryzoides); experiment: Flooded paddy, preemergence weed control; format: in vivo, Echinochloa oryzoides (Ard.) Fritsch.; conditions: rated 3-4 weeks after treatment, 0-9 rating scale
Method in brief: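 Visual 0–9 ratings versus controls scored stand, vigor, malformation, size, chlorosis and overall appearance. Plants grew from seeds or propagating organs sown 0.5 cm deep in silt loam, with water held 1.5–3 cm above the soil for the whole test under greenhouse care.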

[3] = tested on: ABUTH (Abutilon theophrasti); experiment: Preemergence herbicidal evaluation; format: in vivo, Medic.; conditions: rated 4-5 weeks after treatment
[4] = tested on: GLXMAW (Soybean, Williams); experiment: Postemergence herbicidal evaluation; format: in vivo, Glycine max, (L.) Merr. cv Williams; conditions: postemergence
Method in brief: (§1)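 Visual 0–9 injury scores versus control plants, covering stand, vigour, malformation, size, chlorosis and general appearance, taken four to five weeks post-spray and averaged over replicate tests. Plants were sprayed at roughly two weeks old and held on greenhouse benches.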

ZEAMX (Corn, Field) [5] = experiment: Preemergence herbicidal evaluation; format: in vivo, Zea mays, L.; conditions: rated 4-5 weeks after treatment
[6] = tested on: GLXMAW (Soybean, Williams); experiment: Preemergence herbicidal evaluation; format: in vivo, Glycine max, (L.) Merr. cv Williams; conditions: rated 4-5 weeks after treatment
ZEAMX (Corn, Field) [7] = experiment: Postemergence herbicidal evaluation; format: in vivo, Zea mays, L.; conditions: postemergence
Method in brief: as §1

[8] = tested on: IPOHE (Ipomoea hederacea); experiment: Preemergence herbicidal evaluation; format: in vivo, (L.) Jacq.; conditions: rated 4-5 weeks after treatment
ORYSAT (Rice, Tebonnet) = experiment: Flooded paddy, post-transplant rice tolerance; format: in vivo, Oryza sativa, (L.) Tebonnet; conditions: flooded paddy, post-transplant rice, rated 3-4 weeks after treatment, 0-9 rating scale
Method in brief: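 Seedlings aged ten days are transplanted in pairs into undrained pots of silt loam, which are then flooded to a depth of 1.5 to 3 cm. After herbicide application the pots are kept in a greenhouse with the flood maintained. Plants are rated 0-9 by visual comparison with controls.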

[9] = tested on: ECHCG (Echinochloa crus-galli); experiment: Postemergence herbicidal evaluation; format: in vivo, (L.) Beau; conditions: postemergence
Method in brief: as §1

Structure (SMILES)	Preemergence herbicidal rating TRZAWR ([1]; Rate 0.0620 kg/ha)	Preemergence herbicidal rating TRZAWR ([1]; Rate 0.1250 kg/ha)	herbicidal rating, ECHORC ([2]; rate 0.0080 kg/ha)	herbicidal rating, ECHORC ([2]; rate 0.0320 kg/ha)	herbicidal rating, ECHORC ([2]; rate 0.1250 kg/ha)	Preemergence herbicidal rating ABUTH ([3]; Rate 0.0620 kg/ha)	Preemergence herbicidal rating ABUTH ([3]; Rate 0.1250 kg/ha)	GLXMAW herbicidal rating ([4]; rate 0.0320 kg/ha)	GLXMAW herbicidal rating ([4]; rate 0.0620 kg/ha)	Preemergence herbicidal rating ZEAMX (ZEAMX (Corn, Field) [5]; Rate 0.0620 kg/ha)	Preemergence herbicidal rating ZEAMX (ZEAMX (Corn, Field) [5]; Rate 0.1250 kg/ha)	Preemergence herbicidal rating GLXMAW ([6]; Rate 0.0620 kg/ha)	Preemergence herbicidal rating GLXMAW ([6]; Rate 0.1250 kg/ha)	ZEAMX herbicidal rating (ZEAMX (Corn, Field) [7]; rate 0.0320 kg/ha)	ZEAMX herbicidal rating (ZEAMX (Corn, Field) [7]; rate 0.0620 kg/ha)	Preemergence herbicidal rating IPOHE ([8]; Rate 0.0620 kg/ha)	Preemergence herbicidal rating IPOHE ([8]; Rate 0.1250 kg/ha)	herbicidal rating, ORYSAT (rice tolerance) (ORYSAT (Rice, Tebonnet); rate 0.0080 kg/ha)	herbicidal rating, ORYSAT (rice tolerance) (ORYSAT (Rice, Tebonnet); rate 0.0320 kg/ha)	herbicidal rating, ORYSAT (rice tolerance) (ORYSAT (Rice, Tebonnet); rate 0.1250 kg/ha)	other results
CC1=CC(C)(C)OC(c2nsc3ccc(-n4c(=O)cc(C(F)(F)F)n(C)c4=O)cc23)C1 (stereo not shown) [Compound 65, 3-[3-(3,6-dihydro-4,6,6-trimethyl-2H-pyran-2-yl)-1,2-benzisothiazol-5-yl]-1-methyl-6-(trifluoromethyl)uracil]	5.0	7.0	0.0	0.0	7.0	9.0	9.0	5.5	7.0	7.0	8.0	2.0	3.0	5.0	5.5	0.0	3.0	0.0	0.0	0.0	Preemergence herbicidal rating TRZAWR ([1]; Rate 0.2500 kg/ha): 9.0; Preemergence herbicidal rating ABUTH ([3]; Rate 0.2500 kg/ha): 9.0; Preemergence herbicidal rating ZEAMX (ZEAMX (Corn, Field) [5]; Rate 0.2500 kg/ha): 9.0; Preemergence herbicidal rating GLXMAW ([6]; Rate 0.2500 kg/ha): 6.0; Preemergence herbicidal rating IPOHE ([8]; Rate 0.2500 kg/ha): 9.0; ECHCG herbicidal rating ([9]; rate 0.0320 kg/ha): 4.0; ECHCG herbicidal rating ([9]; rate 0.0620 kg/ha): 5.0
C[C@@H]1C[C@H](C)OC(c2nsc3cc(F)c(-n4c(=O)cc(C(F)(F)F)n(C)c4=O)cc23)O1 (stereo partly drawn) [Compound 67, 3-[3-[(4R,6S)-4,6-dimethyl-m-dioxan-2-yl]-6-fluoro-1,2-benzisothiazol-5-yl]-1-methyl-6-(trifluoromethyl)uracil]	9.0	9.0	4.5	9.0	9.0	9.0	9.0	9.0	9.0	9.0	9.0	9.0	9.0	5.5	6.0	7.0	9.0	5.5	9.0	9.0	ECHCG herbicidal rating ([9]; rate 0.0320 kg/ha): 3.0; ECHCG herbicidal rating ([9]; rate 0.0620 kg/ha): 4.0
Cc1sccc1-c1nsc2ccc(-n3c(=O)cc(C(F)(F)F)n(C)c3=O)cc12 [Compound 68, 2,4(1H,3H)-pyrimidinedione, 1-methyl-3-[3-(2-methyl-3-thienyl)-1,2-benzisothiazol-5-yl]-6-(trifluoromethyl)-]	2.0	5.0	7.0	8.5	9.0	8.5	9.0	6.5	7.0	2.5	4.0	1.5	3.0	5.5	6.0	1.5	3.0	1.5	2.5	3.5	Preemergence herbicidal rating TRZAWR ([1]; Rate 0.2500 kg/ha): 7.0; Preemergence herbicidal rating ABUTH ([3]; Rate 0.2500 kg/ha): 9.0; Preemergence herbicidal rating ZEAMX (ZEAMX (Corn, Field) [5]; Rate 0.2500 kg/ha): 6.0; Preemergence herbicidal rating GLXMAW ([6]; Rate 0.2500 kg/ha): 7.5; Preemergence herbicidal rating IPOHE ([8]; Rate 0.2500 kg/ha): 4.5; ECHCG herbicidal rating ([9]; rate 0.0320 kg/ha): 4.0; ECHCG herbicidal rating ([9]; rate 0.0620 kg/ha): 5.0

From patent US6706663B2, “Herbicidal 3-heterocyclic substituted benzisothiazole and benzisoxazole compounds” (Wyeth, priority 2000, dated 2004)
